{"source": "patent US6107469A", "about": "“Minimum recognition unit of a pem mucin tandem repeat specific monoclonal antibody” (Cancer Therapeutics Limited, priority 1991, dated 2000)", "tested_on": "immobilised mucin receptor peptide (YVTSAPDTRPAPGST, the epitope sequence from the mucin molecule)", "assay": "Equilibrium dialysis binding of I125-labelled EPPT peptides to immobilised mucin receptor peptide", "conditions": "24-48 hours at room temperature, FIGS. 2 and 3", "procedure": "Preparation of immobilised mucin receptor peptide. 7.5 mg of YVTSAPDTRPAPGST (SEQ ID No 18) (the epitope sequence from the mucin molecule) was dissolved in 100 mM sodium phosphate buffer pH8. This was mixed with 7.5 mg of bovine serum albumin (BSA) and made up to 0.5 ml with buffer. 5 μl of 25% glutaraldehye was added, mixed and left to stand at room temperature for 15 minutes. A further 2.5 μl of glutaraldehyde was then added and the mixture left for a further 15 minutes.\nFollowing the incubation, 100 μl of 1M glycine pH6 was added and left for 10 minutes to quench the glutaraldehyde. The reaction mixture was then aliquoted into 100 μl portions and stored at -20° C. until use.\nRadiolabelling of EPPT peptides prior to binding assays. Peptides were dissolved in phosphate buffered saline, 100 mM sodium phosphate pH8, or 5% DMSO in sodium phosphate. […] 1 ml fractions were collected from the eluate and assayed for radioactivity.\nBinding of EPPT peptides to immobilised mucin receptor peptide. […] Samples are removed from both sides of the membrane and assayed for the presence of radioactivity. […] Following incubation and equilibration, samples were removed from the dialysis module and counted for the presence of I^125. The radioactivity was then converted to amount of peptide for the purposes of determining the amount bound to the immobilised receptor peptide.", "note": "Entries after “also recorded” stand apart in the source; their conditions may differ.", "data": [{"substance": "H-EPPTRTFAY-OH [EPPTRTFAY, NH2-EPPTRTFAY-COOH]", "values": [{"measurement": "binding to the mucin receptor peptide", "value": "no real binding; also recorded: does not itself appear to bind"}]}]}
